Data from doi:10.1101/2024.05.17.594634, “Protein Structure Inspired Drug Discovery” (bioRxiv, 2024).
Each block holds one compound with its values, some of them ahead of it.

Experiments:
human CD34+ stem cells = test: Bone marrow stem cell (hematopoietic) colony formation assay; format: cell-based; details: for mean number of colonies, % of control, 14 day / mean number of colonies, % of control, 8 day: 40 μM compound, mean N=2; for mean number of colonies, % of control, 14 day: 14 days; for mean number of colonies, % of control, 8 day: total colonies at 8 days
Description: In parallel with measuring growth inhibition of cancer cell growth, we measured effect on human hematopoietic stem cells. Hematopoietic stem cells reside in the bone marrow and are the source of mature cells present in blood.[66] Bone marrow is one of the most sensitive organs in the body to drug toxicity, especially so for anticancer drugs where it can approach 100%.[67–69] Bone marrow toxicity was measured by performing hematopoietic colony formation assays on human CD34+ stem cells. The stem cell nature of this assay permitted assessment of trilineage colony formation: granulocytic (white blood cells), erythrocytic (red blood cells) and megakaryocytic (platelets), measured by the formation of CFU-GM (colony-forming-granulocyte-macrophage), BFU-E (erythroid burst-forming unites) and CFU-GEMM (colony-forming unit-granulocyte, erythrocyte, monocyte, megakaryocyte) colonies, respectively. Two measurements were taken. Total colonies at eight days were measured, thereby matching the eight-day time frame of cancer cell colony formation assays. At fourteen days, individual colonies have differentiated, permitting quantification of each lineage. Human hematopoietic stem cell trilineage colony formation assays were performed as previously described by us.[65] Briefly, human cord blood CD34+ cells (catalog #: 70008.5) were purchased from StemCell Technology Inc., and seeded at 1 × 10^4 cells per 35 mm dish. Cells were cultured in MethoCult™ Express (StemCell Technologies, Inc.) semisolid media, per manufacturer’s instructions, in the presence of compound or vehicle control. At eight days colonies, i.e., groups of ≥ 10 cells, were counted. At fourteen days, individual colonies of BFU-E, CFU-GM and CFU-GEMM were identified based on manufacturers’ morphologic characterization criteria. Assays were run in replicates of N = 2; some were run in replicates of N = 3, as denoted.

HT29 colon cancer cells = test: Eight-day colony formation assay, HT29; format: cell-based, human
Description: (§1) We sought to identify compounds that would inhibit the growth of cancer cells, but that also did so selectively. Inhibition of cancer cell growth is a highly sought after attribute of anticancer agents. This was assessed by measuring the ability of a compound to inhibit cell growth in eight-day colony formation assays, examining concentrations ranging from 0.017 to 40 μM. Breast, colon, lung and prostate cancer are four of the most common causes of cancer in the United States, are major causes of cancer cell death, and were examined.[64] Two cell lines for each cancer type were assessed: A549 (adenocarcinoma) and H226 (squamous carcinoma) for lung, MCF-7 (estrogen receptor [ER] positive) and MDA-MB-231 (ER negative) for breast, LNCaP (androgen receptor [AR] positive) and PC3-M (AR negative) for prostate, and HCT116 (wild type p53, mutated KRAS) and HT29 (p53 mutant) for colon.[65]
(§2) In considering effect on cancer cells, for each compound and each cell line tested we calculated the efficacy ratio, i.e., efficacy ratio = (percent of remaining cancer cell colonies)/(percent of remaining bone marrow colonies), at 8 days after treatment with 40 μM compound (S4 Fig). We considered those with an efficacy ratio below 0.5 as active and at least partially selective. The stringency of this is highlighted by considering the effect of 5FU on colon cancer, where it is frequently used clinically in proven curative settings, as well as proven life prolonging settings.[70, 71] […] Even at 5.7 μM, where 5FU is toxic to bone marrow, with hematopoietic colony formation at 38% of control, the efficacy ratio for HT29 cells has only dropped to 0.52. […] It can be seen that compounds segregate to protein sites. Specifically, of 10 compounds meeting this activity criteria (i.e., efficacy ratio <0.5), 3 were directed at the Dxr2 site, 3 at FolC2, 2 at FolC1, 1 at Dxr1 and 1 at TYLT.
(§3) Eight-day colony formation assays of cancer cells were performed as described by us.[87] Briefly, 0.5–1.0 × 10^3 cells were seeded into a 12 well plate, after 24 hours compound added and eight days later colonies (of 3 or more cells) were scored after trypan blue staining. Conditions were in replicates of N = 2. All compounds were stored under desiccated conditions in a sealed container at minus 20°C upon arrival. One day prior to use, they were placed into DMSO, stored at […] as stock solutions, thawed just prior to use, and not reused.

HT116 colon cancer cells = test: Eight-day colony formation assay, HT116; format: cell-based, human
Description: as §1, §2, §3

[1] = test system: MCF-7 breast cancer cells; test: Eight-day colony formation assay, MCF-7; format: cell-based, human
Description: as §1, §2, §3

[2] = test system: MDA-MB-231 breast cancer cells; test: Eight-day colony formation assay, MDA-MB-231; format: cell-based, human; details: MDAMB231
Description: as §1, §2, §3

H226 lung cancer cells = test: Eight-day colony formation assay, H226; format: cell-based, human
Description: as §1, §2, §3

A549 lung cancer cells = test: Eight-day colony formation assay, A549; format: cell-based, human
Description: as §1, §2, §3

[3] = test system: PC3-M prostate cancer cells; test: Eight-day colony formation assay, PC3-M; format: cell-based, human
Description: as §1, §2, §3

[4] = test system: LNCaP prostate cancer cells; test: Eight-day colony formation assay, LNCaP; format: cell-based, human
Description: as §1, §2, §3

[5] = test system: human breast, prostate, colon and lung cancer cells; test: Eight-day colony formation assays, summary across the cancer cell line panel; format: cell-based
Description: as §1, §2, §3

[6] = test system: HT29, MDA-MB-231 and H226; test: NCI-60 cell line screen, other cell lines; format: cell-based, human; details: 10 μM X 48 hours
Description: Above findings support the importance of Dxr2 and FolC2 sites, and of Dxr2-017 and FolC2-001 compounds, respectively. The predicted poses of Dxr2-017 bound to the Dxr2 site and FolC2-001 bound to the FolC2 site are shown (Fig 7). The NCI-60 cell line screen evaluates compound growth inhibition and cell toxicity in a highly standardized manner across 60 different cell lines. Dxr2-017 and FolC2-001 were evaluated in this assay (S5 Fig). NCI-60 screens evaluate compounds at 10 μM X 48 hours. […] Of high interest, in the NCI-60 screen Dxr2-017 had relatively high activity against melanoma cell lines, inducing cell death in 5 cell lines ranging from 25–65%, and inhibiting growth in 4 cell lines ranging from 76–96%. Its impact on cell death represents the most striking relative difference in response across cell lines.

effect on bone marrow (human CD34+ stem cells; 0.82 μM): no effect
effect on bone marrow colony formation (human CD34+ stem cells; 5.7 μM): profound suppressive effects
hematopoietic colony formation, % of control (human CD34+ stem cells; 5.7 μM): 38 % of control
effect on bone marrow colony formation (human CD34+ stem cells; 40 μM): completely suppresses colony formation
SMILES: O=c1[nH]cc(F)c(=O)[nH]1 [5FU, 5-fluorouracil, reference compound]
efficacy ratio (HT29 colon cancer cells; 0.82 μM): 0.82
efficacy ratio (cancer cell colonies to bone marrow colonies at 8 days) (HT29 colon cancer cells; 5.7 μM): 0.52

mean number of colonies, % of control, 14 day (human CD34+ stem cells): 93 % of control
mean number of colonies, % of control, 8 day (human CD34+ stem cells): 109 % of control
SMILES: Cc1nnsc1C(=O)OCCCn1c(=O)[nH]c2ccccc21 [Dxr2-001]

mean number of colonies, % of control, 14 day (human CD34+ stem cells): 85 % of control
mean number of colonies, % of control, 8 day (human CD34+ stem cells): 80 % of control
SMILES: c1ccc(CCc2n[nH]c(-c3ccccn3)n2)cc1 [FolC1-031]

mean number of colonies, % of control, 14 day (human CD34+ stem cells): 87 % of control
mean number of colonies, % of control, 8 day (human CD34+ stem cells): 108 % of control
SMILES: O=C(Cn1c(=O)oc2ccccc21)N1CCn2c1nc1ccccc12 [FolC2-001]
efficacy ratio (cancer cell colonies to bone marrow colonies at 8 days) (HT116 colon cancer cells; 5.7 μM): 0.85
efficacy ratio (cancer cell colonies to bone marrow colonies at 8 days) (HT116 colon cancer cells; 40 μM): 0.60
efficacy ratio (cancer cell colonies to bone marrow colonies at 8 days) (HT29 colon cancer cells; 5.7 μM): 1.13
efficacy ratio (cancer cell colonies to bone marrow colonies at 8 days) (HT29 colon cancer cells; 40 μM): 0.79
efficacy ratio (cancer cell colonies to bone marrow colonies at 8 days) ([1]; 5.7 μM): 0.65
efficacy ratio (cancer cell colonies to bone marrow colonies at 8 days) ([1]; 40 μM): 0.43
efficacy ratio (cancer cell colonies to bone marrow colonies at 8 days) ([2]; 5.7 μM): 0.81
efficacy ratio (cancer cell colonies to bone marrow colonies at 8 days) ([2]; 40 μM): 0.28
efficacy ratio (cancer cell colonies to bone marrow colonies at 8 days) (H226 lung cancer cells; 5.7 μM): 0.56
efficacy ratio (cancer cell colonies to bone marrow colonies at 8 days) (H226 lung cancer cells; 40 μM): 0.00
efficacy ratio (cancer cell colonies to bone marrow colonies at 8 days) (A549 lung cancer cells; 5.7 μM): 0.99
efficacy ratio (cancer cell colonies to bone marrow colonies at 8 days) (A549 lung cancer cells; 40 μM): 0.53
efficacy ratio (cancer cell colonies to bone marrow colonies at 8 days) ([3]; 5.7 μM): 0.96
efficacy ratio (cancer cell colonies to bone marrow colonies at 8 days) ([3]; 40 μM): 0.41
efficacy ratio (cancer cell colonies to bone marrow colonies at 8 days) ([4]; 5.7 μM): 0.82
efficacy ratio (cancer cell colonies to bone marrow colonies at 8 days) ([4]; 40 μM): 0.34
number of cell lines exhibiting an efficacy ratio below 0.5 ([5]; 40 μM): 5 cell lines
relative activity for a given compound, % (% of cells tested where ratio is <0.5) ([5]; 40 μM): 63%
fold higher mean efficacy ratio than that of Dxr2-017 ([5]; 40 μM, cells with ratio below 0.5, P = 0.001): 9.7 fold
mean efficacy ratio for cells/compounds where the efficacy ratio is below 0.5 ([5]; 40 μM, mean ± SEM): 0.29 ± 0.09
efficacy at concentrations below 40 μM [5]: some degree of efficacy observed
activity in NCI-60 screen [6]: against H226

mean number of colonies, % of control, 14 day (human CD34+ stem cells): 101 % of control
mean number of colonies, % of control, 8 day (human CD34+ stem cells): 105 % of control
SMILES: O=C(CCc1c[nH]c2ccccc12)N1CCSc2ccccc21 [FolC2-005]
efficacy ratio (cancer cell colonies to bone marrow colonies at 8 days) (HT116 colon cancer cells; 40 μM): 0.70
efficacy ratio (cancer cell colonies to bone marrow colonies at 8 days) (HT29 colon cancer cells; 40 μM): 0.06
efficacy ratio (cancer cell colonies to bone marrow colonies at 8 days) ([1]; 40 μM): 0.33
efficacy ratio (cancer cell colonies to bone marrow colonies at 8 days) ([2]; 40 μM): 0.78
efficacy ratio (cancer cell colonies to bone marrow colonies at 8 days) (H226 lung cancer cells; 40 μM): 0.11
efficacy ratio (cancer cell colonies to bone marrow colonies at 8 days) (A549 lung cancer cells; 40 μM): 0.69
efficacy ratio (cancer cell colonies to bone marrow colonies at 8 days) ([3]; 40 μM): 0.00
efficacy ratio (cancer cell colonies to bone marrow colonies at 8 days) ([4]; 40 μM): 0.28
relative activity for a given compound, % (% of cells tested where ratio is <0.5) ([5]; 40 μM): 63%
efficacy at concentrations below 40 μM [5]: A similar phenomenon is observed

Further lines, the compound ahead of its results:

SMILES: O=C(Nc1nnn[nH]1)c1cc(-c2ccccc2)nc2ccccc12 [PRT-051]
mean number of colonies, % of control, 14 day (human CD34+ stem cells): 119 % of control
mean number of colonies, % of control, 8 day (human CD34+ stem cells): 93 % of control

SMILES: O=C(Cc1n[nH]c(=O)c2ccccc12)Nn1cnc2ccccc21 [TYLT-001]
mean number of colonies, % of control, 14 day (human CD34+ stem cells): 103 % of control
mean number of colonies, % of control, 8 day (human CD34+ stem cells): 117 % of control

SMILES: O=C(COC(=O)c1cccs1)c1ccc2[nH]c(=O)[nH]c2c1 [TYLT-003]
mean number of colonies, % of control, 14 day (human CD34+ stem cells): 94 % of control
mean number of colonies, % of control, 8 day (human CD34+ stem cells): 97 % of control
